The EC50 is the concentration needed to bring the measured effect to its halfway point.

This note sets out measurements from patent US10906899B2, “Bicyclic fused pyrazole derivatives for the treatment of RSV” (GEORGIA STATE UNIVERSITY RESEARCH FOUNDATION, INC., priority 2016, dated 2021).

The subject of the first experiment is RSV. As to the kind of experiment: Dose-response counterscreen: luciferase reporter virus infection of BEAS-2B cells (EC50). The class given is cell-based, respiratory syncytial virus (RSV). To be noted: human respiratory syncytial virus, A series compounds, anti-RSV potency, read-out: Potency Range (EC50 values). Background: A counterscreen serves to expose hits that act by an unwanted route or on another target.
Take `COc1ccc(C2CC(=O)Nc3[nH]ncc32)cc1OC1CCCC1` (centres unmarked) [AVG-069, 4-(3-(cyclopentyloxy)-4-methoxyphenyl)-4,5-dihydro-1H-pyrazolo[3,4-b]pyridin-6(7H)-one]: the 50% effective concentration (EC50) was > 20 µM.

On to `COc1ccc(C2CC(=O)Nc3nn(-c4ccccc4)cc32)cc1OC1CCCC1` (centres unmarked) [AVG-065b], for which the EC50 lay within 1 to 10 µM.

As to `COc1ccc(C2CC(=O)Nc3c2cnn3-c2ccccn2)cc1OC1CCCC1` (centres unmarked) [AVG-116], the EC50 was in the range of 1 to 10 µM.

Regarding `COc1cc(C2CC(=O)Nc3c2cnn3-c2nc3ccccc3s2)ccc1OC1CCCC1` (centres unmarked) [AVG-006, 1-(benzo[d]thiazol-2-yl)-4-(4-(cyclopentyloxy)-3-methoxyphenyl)-4,5-dihydro-1H-pyrazolo[3,4-b]pyridin-6(7H)-one], the concentration for a half-maximal effect (EC50) lay within 1 to 10 µM.

In the case of `COc1cc(C2CC(=O)Nc3c2cnn3-c2ccccc2)ccc1OC1CCCC1` (centres unmarked) [AVG-066], the EC50 is 10 to 20 µM.

Regarding `COc1cc(C2CC(=O)Nc3nn(-c4ccccn4)cc32)ccc1OC1CCCC1` (centres unmarked) [AVG-180b], the EC50 lay in the range of 10 to 20 µM.

Still in this experiment, the particulars now being: human respiratory syncytial virus, B series compounds, read-out: Potency Range (EC50 values).
Consider `Cc1c2c(=O)n(-c3nc4ccccc4s3)n(Cc3ccccc3)c2cc(=O)n1Cc1ccc(Cl)cn1` [AVG-095], for which the EC50 is 1 to 10 µM.

Regarding `Cc1c2c(=O)n(-c3cccnn3)n(Cc3ccccc3)c2cc(=O)n1Cc1ccco1` [AVG-109], the half-maximal effective concentration (EC50) fell in the range of 1 to 10 µM.

Turning to `Cc1c2c(=O)n(-c3nc4ccccc4s3)n(Cc3ccccc3)c2cc(=O)n1CC1CCCC(=O)N1` (centres unmarked) [AVG-210], the EC50 was 10 to 20 µM.

For the compound `Cc1c2c(=O)n(-c3nc4ccccc4s3)n(Cc3ccccc3)c2cc(=O)n1Cc1ncc[nH]1` [AVG-097], the EC50 was 1 to 10 µM.

For `Cc1c2c(=O)n(-c3nc4c(Cl)cccc4s3)n(Cc3ccccc3)c2cc(=O)n1Cc1cccc(Cl)n1` [AVG-183], the EC50 lay in the range of 0.01 to 0.1 µM.

With `Cc1c2c(=O)n(-c3ccccn3)n(Cc3ccccc3)c2cc(=O)n1Cc1ccc(Cl)cc1` [AVG-078], the EC50 is 0.1 to 1 µM.

Regarding `Cc1c2c(=O)n(-c3nc4ccccc4s3)n(Cc3ccccc3)c2cc(=O)n1Cc1ccc(Cl)c(Cl)n1` [AVG-168], the EC50 lay in the range of 0.1 to 1 µM.

On to `Cc1c2c(=O)n(-c3cccnc3)n(Cc3ccccc3)c2cc(=O)n1Cc1ccco1` [AVG-081], for which the EC50 lay within 10 to 20 µM.

Consider `Cc1c2c(=O)n(-c3nc4ccccc4s3)n(Cc3cccc(Cl)c3)c2cc(=O)n1Cc1cccc(Cl)n1` [AVG-174], for which the EC50 is 1 to 10 µM.

`Cc1c2c(=O)n(-c3nc4ccccc4s3)n(Cc3ccccc3)c2cc(=O)n1Cc1ccccn1` [AVG-036]: the EC50 lay in the range of 0.1 to 1 µM.

As to `Cc1c2c(=O)n(-c3nc4ccncc4s3)n(Cc3ccccc3)c2cc(=O)n1Cc1cccc(Cl)n1` [AVG-197], the EC50 lay in the range of 0.01 to 0.1 µM.

As for `Cc1c2c(=O)n(-c3nc4ccccc4s3)n(Cc3cccnc3)c2cc(=O)n1Cc1ccco1` [AVG-120], the EC50 lay in the range of 1 to 10 µM.

As to `Cc1c2c(=O)n(-c3nc4ccc(OC(C)C)cc4s3)n(Cc3ccccc3)c2cc(=O)n1Cc1cccc(Cl)n1` [AVG-256], the EC50 lay within 0.01 to 0.1 µM.

Regarding `Cc1c2c(=O)n(-c3nc4ccccc4s3)n(Cc3ccccc3)c2cc(=O)n1Cc1cccc(OC(C)C)n1` [AVG-205], the EC50 fell in the range of 0.1 to 1 µM.

Consider `COc1cccc2sc(-n3c(=O)c4c(C)n(Cc5cccc(Cl)n5)c(=O)cc4n3Cc3ccccc3)nc12` [AVG-187], for which the concentration for a half-maximal effect (EC50) lay within 0.1 to 1 µM.

For `Cc1c2c(=O)n(-c3ccccn3)n(Cc3ccccc3)c2cc(=O)n1Cc1ccccc1Cl` [AVG-127], the EC50 was 0.1 to 1 µM.

For the compound `Cc1c2c(=O)n(-c3nc4ccccc4s3)n(CC3CCCC3)c2cc(=O)n1Cc1ccco1` [AVG-071], the EC50 lay in the range of 1 to 10 µM.

On to `Cc1c2c(=O)n(-c3nc4ccccc4s3)n(Cc3ccccc3)c2cc(=O)n1Cc1ncccn1` [AVG-090], for which the EC50 fell in the range of 10 to 20 µM.

`Cc1ccc2nc(-n3c(=O)c4c(C)n(Cc5cccc(Cl)n5)c(=O)cc4n3Cc3ccccc3)sc2c1` [AVG-193]: the EC50 fell in the range of 0.1 to 1 µM.

Consider `Cc1c2c(=O)n(-c3nc4ccccc4s3)n(Cc3ccccc3)c2cc(=O)n1Cc1cccc(OC2CCN(C)CC2)n1` [AVG-208], for which the 50% effective concentration (EC50) was in the range of 1 to 10 µM.

For `Cc1c2c(=O)n(-c3nc4ccccc4s3)[nH]c2cc(=O)n1Cc1ccco1` [AVG-022, 2-(benzo[d]thiazol-2-yl)-5-(furan-2-ylmethyl)-4-methyl-1H-pyrazolo[4,3-c]pyridine-3,6(2H, 5H)-dione], the half-maximal effective concentration (EC50) was 0.1 to 1 µM.

As for `Cc1cccc2nc(-n3c(=O)c4c(C)n(Cc5cccc(Cl)n5)c(=O)cc4n3Cc3ccccc3)sc12` [AVG-194], the EC50 fell in the range of 0.1 to 1 µM.

For the compound `Cc1c2c(=O)n(-c3nc4ccccc4s3)n(Cc3ccccc3)c2cc(=O)n1Cc1cnccn1` [AVG-093], the EC50 fell in the range of 0.1 to 1 µM.

On to `Cc1c2c(=O)n(-c3nc4cc(Cl)ccc4s3)n(Cc3ccccc3)c2cc(=O)n1Cc1cccc(Cl)n1` [AVG-184], for which the EC50 was 1 to 10 µM.

In the case of `Cc1c2c(=O)n(-c3nc4ccccc4s3)n(Cc3ccccc3)c2cc(=O)n1Cc1ccn(C)n1` [AVG-103], the EC50 is 1 to 10 µM.

As to `COc1ccc(Cn2c3cc(=O)n(Cc4cccc(Cl)n4)c(C)c3c(=O)n2-c2nc3ccccc3s2)cc1` [AVG-178], the EC50 was in the range of 0.01 to 0.1 µM.

In the case of `Cc1c2c(=O)n(-c3nc4ccccc4s3)n(Cc3ccccc3)c2cc(=O)n1Cc1cccc(N2CCN(C)CC2)n1` [AVG-225], the EC50 was in the range of 0.1 to 1 µM.

Regarding `Cc1c2c(=O)n(-c3nc4ccccc4s3)n(Cc3ccccc3)c2cc(=O)n1Cc1cccc(C(C)C)n1` [AVG-159], the 50% effective concentration (EC50) was 0.01 to 0.1 µM.

For the compound `Cc1c2c(=O)n(-c3nc4ccccc4s3)n(C)c2cc(=O)n1Cc1ccco1` [AVG-023], the EC50 is > 20 µM.

In the case of `Cc1c2c(=O)n(-c3nc4ccccc4s3)n(CC3CCOCC3)c2cc(=O)n1Cc1ccco1` [AVG-025], the EC50 is 1 to 10 µM.

Regarding `Cc1c2c(=O)n(-c3nc4ccccc4s3)n(CC3CCCOC3)c2cc(=O)n1Cc1ccco1` (centres unmarked) [AVG-072], the EC50 lay in the range of 1 to 10 µM.

In the case of `COc1ccc(Cn2c(=O)c3c(C)n(Cc4ccccn4)c(=O)cc3n2Cc2ccccc2)cc1` [AVG-199], the EC50 lay within 10 to 20 µM.

In the case of `Cc1c2c(=O)n(-c3nc4ccccc4s3)n(CC3CCCCO3)c2cc(=O)n1Cc1ccco1` (centres unmarked) [AVG-073], the EC50 was 1 to 10 µM.

For the compound `Cc1c2c(=O)n(-c3ccccn3)n(Cc3ccccc3)c2cc(=O)n1Cc1ccccn1` [AVG-104], the EC50 is 1 to 10 µM.

With `Cc1c2c(=O)n(-c3nc4ccccc4s3)n(Cc3ccccc3)c2cc(=O)n1Cc1cccnc1` [AVG-088], the EC50 fell in the range of 1 to 10 µM.

For `Cc1c2c(=O)n(-c3nc4ccccc4s3)n(Cc3ccccc3)c2cc(=O)n1CC1CCC(=O)N1` (centres unmarked) [AVG-213], the half-maximal effective concentration (EC50) is 1 to 10 µM.

For `Cc1c2c(=O)n(-c3nc4ccccc4s3)n(Cc3ccoc3)c2cc(=O)n1Cc1ccco1` [AVG-123], the EC50 was in the range of 10 to 20 µM.

In the case of `CC(C)c1c2c(=O)n(-c3nc4ccccc4s3)n(Cc3ccccc3)c2cc(=O)n1Cc1cccc(Cl)n1` [AVG-166], the EC50 was in the range of 1 to 10 µM.

In the case of `Cc1c2c(=O)n(-c3nc4ccccc4s3)n(Cc3ccccc3)c2cc(=O)n1Cc1cccc(C2CCOCC2)n1` [AVG-227], the EC50 was in the range of 0.1 to 1 µM.

Take `Cc1ccc2sc(-n3c(=O)c4c(C)n(Cc5cccc(Cl)n5)c(=O)cc4n3Cc3ccccc3)nc2c1` [AVG-192]: the concentration for a half-maximal effect (EC50) was in the range of 0.1 to 1 µM.

Take `Cc1c2c(=O)n(-c3nc4ccccc4s3)n(Cc3ccccc3)c2cc(=O)n1Cc1cc(Cl)ccn1` [AVG-160]: the EC50 lay in the range of 1 to 10 µM.

Take `COc1cc(C2CC(=O)Nc3c2c(OS(=O)(=O)C(F)(F)F)nn3-c2nc3ccccc3s2)ccc1OC1CCCC1` (centres unmarked) [AVG-257, 1-(benzo[d]thiazol-2-yl)-4-(4-(cyclopentyloxy)-3-methoxyphenyl)-6-oxo-4,5,6,7-tetrahydro-1H-pyrazolo[3,4-b]pyridin-3-yl trifluoromethanesulfonate]: the EC50 was 10 to 20 µM.

With `Cc1c2c(=O)n(-c3nc4ccccc4s3)n(Cc3ccccc3)c2cc(=O)n1Cc1ccn[nH]1` [AVG-101], the half-maximal effective concentration (EC50) fell in the range of 1 to 10 µM.

Take `Cc1c2c(=O)n(-c3ccccn3)n(Cc3ccccc3)c2cc(=O)n1Cc1cccc(-c2ccccc2)n1` [AVG-229]: the concentration for a half-maximal effect (EC50) was in the range of 0.1 to 1 µM.

For `Cc1c2c(=O)n(-c3nc4ccccc4s3)n(C)c2cc(=O)n1CCN1CCOCC1` [AVG-029], the concentration giving a half-maximal response (EC50) was > 20 µM.

`Cc1c2c(=O)n(-c3nc4ccccc4s3)n(CC3CCCCC3)c2cc(=O)n1Cc1ccco1` [AVG-024]: the EC50 lay in the range of 1 to 10 µM.

`CCOc1cccc(Cn2c(C)c3c(=O)n(-c4nc5ccccc5s4)n(Cc4ccccc4)c3cc2=O)n1` [AVG-204]: the EC50 lay in the range of 0.1 to 1 µM.
